This is an account of results in US7928136B2, “Substituted 2-indolinone as PTK inhibitors containing a zinc binding moiety” (Curis, Inc., priority 2006, dated 2011).

The target in one series is T1, VEGFR2 (Homo sapiens, UniProt P35968).
T1 construct: GST (N); HIS6 (N); Thrombin cleavage site (N); purchased Cell Signaling Technologies; host or cells: baculovirus expression system
In words: HTScan Receptor Kinase Assay, VEGFR2 tyrosine kinase. It counts as biochemical. The conditions noted are these: human VEGFR2 kinase domain, 200 μM ATP. The procedure:
(§1) Immediately transfer enzyme from −80° C. to ice. Allowed enzyme to thaw on ice. […] Returned immediately to ice. […] Incubated reaction plate at room temperature for 30 minutes. […] Added 100 μl/well primary antibody. Incubated at room temperature for 60 minutes. […] Added 100 μl/well diluted antibody. Incubated at room temperature for 30 minutes. […] Incubated at room temperature for 5 minutes.
(§2) The following TABLE B lists compounds representative of the invention and their activity in HDAC, VEGFR2 and PDGFR assays.

Another series concerns HDAC. In words: HDAC fluorimetric assay kit (AK-500, Biomol), HeLa nuclear extract. It counts as biochemical. The following applies: Fluor de Lys substrate. The procedure:
HDAC inhibitors were screened using an HDAC fluorimetric assay kit (AK-500, Biomol, Plymouth Meeting, Pa.). […] Each assay was setup as follows: Defrosted all kit components and kept on ice until use. Diluted HeLa nuclear extract 1:29 in Assay Buffer (50 mM Tris/Cl, pH 8.0, 137 mM NaCl, 2.7 mM KCl, 1 mM MgCl2). Prepared dilutions of Trichostatin A (TSA, positive control) and tested compounds in assay buffer (5× of final concentration). Diluted Fluor de Lys™ Substrate in assay buffer to 100 uM (50 fold=2× final). Diluted Fluor de Lys™ developer concentrate 20-fold (e.g. 50 μl plus 950 μl Assay Buffer) in cold assay buffer. Second, diluted the 0.2 mM Trichostatin A 100-fold in the 1× Developer (e.g. 10 μl in 1 ml; final Trichostatin A concentration in the 1× Developer=2 μM; final concentration after addition to HDAC/Substrate reaction=1 μM). Added Assay buffer, diluted trichostatin A or test inhibitor to appropriate wells of the microtiter plate. Added diluted HeLa extract or other HDAC sample to all wells except for negative controls. Allowed diluted Fluor de Lys™ Substrate and the samples in the microtiter plate to equilibrate to assay temperature (e.g. 25 or 37° C. Initiated HDAC reactions by adding diluted substrate (25 μl) to each well and mixing thoroughly. Allowed HDAC reactions to proceed for 1 hour and then stopped them by addition of Fluor de Lys™ Developer ([…]). Incubated plate at room temperature (25° C.) for 10-15 min. Read samples in a microtiter-plate reading fluorimeter capable of excitation at a wavelength in the range 350-380 nm and detection of emitted light in the range 440-460 nm.
as §2

The next series addresses T2, PDGFR-beta (Homo sapiens, UniProt P09619).
T2 construct: GST (N); HIS6 (N); Thrombin cleavage site (N); purchased Cell Signaling Technologies; host or cells: baculovirus expression system
Kind of series: HTScan Receptor Kinase Assay, PDGFR-beta tyrosine kinase. The conditions noted are these: human PDGFR-beta kinase fragment, 200 μM ATP. It counts as biochemical. As for the experimental part:
as §1, §2

SMILES strings stand for the structures. pIC50: −log10 of the molar value. Bounds are passed on as bounds.

T2 sequence (P09619 561-1106): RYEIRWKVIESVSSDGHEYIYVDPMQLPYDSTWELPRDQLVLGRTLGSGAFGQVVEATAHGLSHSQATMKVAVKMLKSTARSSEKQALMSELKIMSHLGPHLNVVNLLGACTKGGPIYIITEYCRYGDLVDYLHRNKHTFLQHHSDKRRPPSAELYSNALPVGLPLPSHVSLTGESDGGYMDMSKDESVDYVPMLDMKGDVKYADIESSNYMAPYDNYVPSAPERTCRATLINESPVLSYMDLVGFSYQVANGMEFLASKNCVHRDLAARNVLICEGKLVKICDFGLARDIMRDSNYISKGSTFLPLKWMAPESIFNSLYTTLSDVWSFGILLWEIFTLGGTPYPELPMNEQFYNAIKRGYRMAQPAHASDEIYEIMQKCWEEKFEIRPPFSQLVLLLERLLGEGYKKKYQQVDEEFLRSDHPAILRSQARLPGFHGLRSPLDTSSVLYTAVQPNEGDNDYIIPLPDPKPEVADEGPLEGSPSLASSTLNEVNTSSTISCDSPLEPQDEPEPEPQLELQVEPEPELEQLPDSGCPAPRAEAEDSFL
T1 sequence (P35968 807-1356 limits assumed): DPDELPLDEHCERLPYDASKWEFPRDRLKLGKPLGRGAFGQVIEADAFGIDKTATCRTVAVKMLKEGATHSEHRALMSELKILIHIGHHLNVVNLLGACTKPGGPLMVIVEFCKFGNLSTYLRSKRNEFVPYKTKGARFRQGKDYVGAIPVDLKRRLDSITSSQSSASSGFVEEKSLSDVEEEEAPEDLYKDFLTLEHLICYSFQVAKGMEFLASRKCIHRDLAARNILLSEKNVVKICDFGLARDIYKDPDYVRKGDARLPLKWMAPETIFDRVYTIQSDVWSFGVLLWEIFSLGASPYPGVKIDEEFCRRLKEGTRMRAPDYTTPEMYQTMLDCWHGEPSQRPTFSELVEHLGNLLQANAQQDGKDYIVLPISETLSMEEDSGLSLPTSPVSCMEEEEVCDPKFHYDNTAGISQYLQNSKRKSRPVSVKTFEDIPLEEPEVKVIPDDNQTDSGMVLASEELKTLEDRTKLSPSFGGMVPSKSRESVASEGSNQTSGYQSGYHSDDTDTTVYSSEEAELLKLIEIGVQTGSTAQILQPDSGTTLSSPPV

As for `Cc1[nH]c(/C=C2\C(=O)Nc3ccc(F)cc32)c(C)c1C(=O)NCCOc1ccc(/C=C/C(=O)NO)cc1` [Compound 14, 5-((Z)-(5-fluoro-2-oxoindolin-3-ylidene)methyl)-N-(2-(4-((E)-3-(hydroxyamino)-3-oxoprop-1-enyl)phenoxy)ethyl)-2,4-dimethyl-1H-pyrrole-3-carboxamide], the pIC50 against VEGFR2 is greater than 7.00; in the series on HDAC, 6.00 to 7.00.
For `Cc1[nH]c(/C=C2\C(=O)Nc3ccc(F)cc32)c(C)c1C(=O)NCCC(=O)NO` [Compound 2, N-(2-(hydroxycarbamoyl)ethyl)-5-((Z)-(5-fluoro-2-oxoindolin-3-ylidene)methyl)-2,4-dimethyl-1H-pyrrole-3-carboxamide], the pIC50 on VEGFR2 was greater than 7.00; against PDGFR-beta, 6.00 to 7.00; with HDAC, 6.00 to 7.00.
Regarding `Cc1[nH]c(/C=C2\C(=O)Nc3ccc(F)cc32)c(C)c1C(=O)NCCCC(=O)NO` [Compound 3, N-(3-(hydroxycarbamoyl)propyl)-5-((Z)-(5-fluoro-2-oxoindolin-3-ylidene)methyl)-2,4-dimethyl-1H-pyrrole-3-carboxamide], the figures for the pIC50 at VEGFR2, against PDGFR-beta and in the series on HDAC were greater than 7.00, greater than 7.00 and 5.00 to 6.00, respectively.
In the series with HDAC, `Cc1[nH]c(/C=C2\C(=O)Nc3ccc(F)cc32)c(C)c1C(=O)NCCOc1ccc(C(=O)NO)cc1` [Compound 8, (Z)-5-((5-fluoro-2-oxoindolin-3-ylidene)methyl)-N-(2-(4-(hydroxycarbamoyl)phenoxy)ethyl)-2,4-dimethyl-1H-pyrrole-3-carboxamide] gave a pIC50 of 6.00 to 7.00.
Take `Cc1[nH]c(/C=C2\C(=O)Nc3ccc(F)cc32)c(C)c1C(=O)NCCCCCCCC(=O)NO` [Compound 16, (Z)-5-((5-Fluoro-2-oxoindolin-3-ylidene)methyl)-N-(8-(hydroxyamino)-8-oxooctyl)-2,4-dimethyl-1H-pyrrole-3-carboxamide]: the melting point was 213.7 °C (dec.). Also, at VEGFR2, the pIC50 is greater than 7.00. In addition, at PDGFR-beta, the pIC50 is 6.00 to 7.00. This compound also gave a pIC50 in the series on HDAC greater than 7.00.
`Cc1[nH]c(/C=C2\C(=O)Nc3ccc(F)cc32)c(C)c1C(=O)NCCCCCCC(=O)NO` [Compound 15, (Z)-5-((5-Fluoro-2-oxoindolin-3-ylidene)methyl)-N-(7-(hydroxyamino)-7-oxoheptyl)-2,4-dimethyl-1H-pyrrole-3-carboxamide]: the melting point is 221 °C (dec.). On VEGFR2, this compound showed a pIC50 greater than 7.00. On PDGFR-beta, this compound had a pIC50 of 6.00 to 7.00. Moreover, the pIC50 in the series on HDAC is greater than 7.00.
Consider `Cc1[nH]c(/C=C2\C(=O)Nc3ccc(F)cc32)c(C)c1C(=O)NCCCCCC(=O)N(C)O` [Compound 9, (Z)-5-((5-fluoro-2-oxoindolin-3-ylidene)methyl)-N-(6-(hydroxy(methyl)amino)-6-oxohexyl)-2,4-dimethyl-1H-pyrrole-3-carboxamide], for which the pIC50 was greater than 7.00 against VEGFR2 and less than 5.00 in the series with HDAC.
Take `Cc1[nH]c(/C=C2\C(=O)Nc3ccc(F)cc32)c(C)c1C(=O)NCCCCCC(=O)NO` [Compound 4, N-(5-(hydroxycarbamoyl)pentyl)-5-((Z)-(5-fluoro-2-oxoindolin-3-ylidene)methyl)-2,4-dimethyl-1H-pyrrole-3-carboxamide]: the melting point was 209.7 °C (dec.). At VEGFR2, this compound showed a pIC50 greater than 7.00. Also, the pIC50 on PDGFR-beta is greater than 7.00. This compound gave a pIC50 in the series on HDAC of 6.00 to 7.00.
